Reference: paper PMC4297292 (Cancer Cell, 2015)
pIC50: −log10 of the molar value.

Assays:
[1] = tested on: patient #2 cells (vemurafenib-resistant melanoma); experiment: Cell proliferation assay; format: cell-based
[2] = tested on: cancer cells that are wild-type for BRAF and NRAS; experiment: Cell growth inhibition; format: cell-based; settings: Figure 2A, in general
[3] = tested on: SK-Mel 23 cells; experiment: Cell growth inhibition; format: cell-based; settings: Figure 2A
[4] = tested on: patient #2 cell xenograft; experiment: Xenograft growth; format: in vivo, nude mice; settings: for body weight: 20 mg/kg oral daily, patient #2 xenograft study; for xenograft growth: PLX4720 90 mg/kg, CCT compounds 20 mg/kg oral daily, nude mice
[5] = tested on: ERK and SRC in patient #3 PDX; experiment: pERK/pSFK immunoblot in PDX; format: in vivo, mice; settings: PLX4720 45 mg/kg, CCT compounds 20 mg/kg daily gavage
[6] = tested on: MEK, ERK and SRC/SFKs in patient #2 cells; experiment: pMEK, pERK, pSFK immunoblot; format: cell-based; settings: 4 hr; for inhibition of SFKs: 0.5 µM, Figure S3B; for inhibition of MEK, ERK, and SRC: 1 μM
[7] = tested on: melanoma and colorectal cancer cell lines that are mutant for BRAF; experiment: Cell growth inhibition; format: cell-based; settings: Figures 2A and 2B
[8] = molecular target: SRC (Homo sapiens, UniProt P12931); experiment: Z'-LYTE kinase assay; format: biochemical
[9] = tested on: panel of 63 protein kinases; experiment: Efficacy against a panel of protein kinases; format: biochemical; settings: 1 μM, percent activity compared to DMSO
[10] = molecular target: COT (Homo sapiens, UniProt P41279); experiment: Z'-LYTE kinase assay; format: biochemical
[11] = tested on: Ba/F3 cells transformed with BRAF^T529N,V600E; experiment: Growth of Ba/F3 cells; format: cell-based; settings: [3H]-thymidine incorporation
[12] = tested on: ERK activity in SK-Mel 23 cells; experiment: pERK immunoblot; format: cell-based; settings: 1 μM; 4 hr
[13] = tested on: PLX4720-resistant PDX from patient #1; experiment: PDX growth; format: in vivo, NSG mice; settings: PLX4720 45 mg/kg, CCT compounds 20 mg/kg daily gavage
[14] = molecular target: LCK (Homo sapiens, UniProt P06239); experiment: Z'-LYTE kinase assay; format: biochemical
[15] = tested on: A375/R xenograft (PLX4720-resistant A375); experiment: Xenograft growth; format: in vivo, nude mice; settings: 20 mg/kg oral daily; for body weight: A375/R xenograft study; for xenograft growth: nude mice
[16] = tested on: RAS mutant melanoma and colorectal cancer cells; experiment: Cell growth inhibition; format: cell-based; settings: Figures 2A and 2B
[17] = tested on: MEK and ERK in WM266.4 cells (BRAF mutant); experiment: pMEK/pERK immunoblot; format: cell-based; settings: 24 hr
[18] = Single and repeat dose tolerability / oral toxicity; format: in vivo, CD-1 mice; settings: for weight loss: 30 mg/kg for 4 days
[19] = tested on: NRAS mutant D04 cells; experiment: Cell proliferation assay; format: cell-based; settings: CellTiter Glo
[20] = molecular target: MEK1 (Homo sapiens, UniProt Q02750); experiment: Z'-LYTE kinase assay; format: biochemical
[21] = tested on: MEK in NRAS mutant D04 cells; experiment: pMEK/pERK immunoblot; format: cell-based; settings: 24 hr
[22] = tested on: PDX from patient #13; experiment: PDX growth; format: in vivo, NSG mice; settings: 20 mg/kg daily gavage; patient #13 PDX study
[23] = tested on: patient #3 PDX; experiment: PDX growth; format: in vivo, NSG mice; settings: for body weight: 20 mg/kg daily gavage, patient #3 PDX study; for PDX growth: PLX4720 45 mg/kg, CCT compounds 20 mg/kg daily gavage, NSG mice
[24] = tested on: A375/R cells; experiment: Cell proliferation assay; format: cell-based; settings: CellTiter Glo
[25] = tested on: PDX from patient #5; experiment: PDX growth; format: in vivo, NSG mice; settings: for body weight: 20 mg/kg daily gavage, patient #5 PDX study; for PDX sensitivity compared with PLX4720: PLX4720 45 mg/kg, CCT compounds 20 mg/kg daily gavage, NSG mice
[26] = tested on: patient #3 tumor cells; experiment: Cell proliferation assay; format: cell-based; settings: CellTiter Glo
[27] = tested on: caspase 3 and PARP cleavage in patient #2 cells; experiment: PARP and caspase 3 immunoblot; format: cell-based; settings: 1 μM; 4 hr
[28] = Pharmacokinetic studies, plasma, oral and intravenous dosing; format: in vivo, Balb/c mice; settings: for bioavailability: Balb/c, mouse, plasma, po, 10 mg/kg; for area under the curve / plasma concentration: oral 10 mg/kg/day; for plasma concentration: 10 mg/kg/day
[29] = tested on: BRAF^V600E A375 cells; experiment: Cell proliferation assay; format: cell-based; settings: CellTiter Glo
[30] = tested on: BRAF^V600E A375 xenograft; experiment: Xenograft growth; format: in vivo, nude mice
[31] = tested on: NRAS mutant D04 xenograft; experiment: Xenograft growth; format: in vivo; settings: 20 mg/kg oral daily; nude mice
[32] = tested on: cell lines from patient #5 tumor; experiment: Cell proliferation assay; format: cell-based; settings: CellTiter Glo
[33] = molecular target: CRAF (Homo sapiens, UniProt P04049, Y340D/Y341D); experiment: Z'-LYTE kinase assay; format: biochemical; settings: Table 1
[34] = tested on: A375 cells; experiment: Colony formation; format: cell-based; settings: 0.5 μM; 20 days
[35] = tested on: patient #4 PDX; experiment: PDX growth; format: in vivo, NSG mice; settings: for body weight: 20 mg/kg daily gavage, patient #4 PDX study; for PDX sensitivity: PLX4720 45 mg/kg, CCT compounds 20 mg/kg daily gavage, NSG mice
[36] = molecular target: BRAF (Homo sapiens, UniProt P15056); experiment: Z'-LYTE kinase assay; format: biochemical
[37] = tested on: BRAF^T529N,V600E; experiment: BRAF kinase inhibition, gatekeeper mutant; format: biochemical
[38] = 20 mg/kg/day oral, 7 days/week, nude mice
[39] = 25 mg/kg daily for 19 days, CD-1 mice

LCK, sequence (P06239 whole entry): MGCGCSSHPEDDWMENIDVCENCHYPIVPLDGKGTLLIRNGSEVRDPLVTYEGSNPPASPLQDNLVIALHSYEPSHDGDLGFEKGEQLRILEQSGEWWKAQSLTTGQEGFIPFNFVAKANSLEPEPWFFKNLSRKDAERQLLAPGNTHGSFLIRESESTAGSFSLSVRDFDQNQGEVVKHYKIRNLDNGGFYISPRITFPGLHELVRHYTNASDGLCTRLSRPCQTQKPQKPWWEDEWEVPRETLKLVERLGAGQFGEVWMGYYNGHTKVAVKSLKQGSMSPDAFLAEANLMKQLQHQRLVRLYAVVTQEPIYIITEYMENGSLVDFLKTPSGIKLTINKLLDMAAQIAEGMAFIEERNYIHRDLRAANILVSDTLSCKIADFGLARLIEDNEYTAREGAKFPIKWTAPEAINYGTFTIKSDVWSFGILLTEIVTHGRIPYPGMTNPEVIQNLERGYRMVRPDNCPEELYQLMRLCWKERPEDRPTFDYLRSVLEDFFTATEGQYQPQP
MEK1, sequence (Q02750 whole entry): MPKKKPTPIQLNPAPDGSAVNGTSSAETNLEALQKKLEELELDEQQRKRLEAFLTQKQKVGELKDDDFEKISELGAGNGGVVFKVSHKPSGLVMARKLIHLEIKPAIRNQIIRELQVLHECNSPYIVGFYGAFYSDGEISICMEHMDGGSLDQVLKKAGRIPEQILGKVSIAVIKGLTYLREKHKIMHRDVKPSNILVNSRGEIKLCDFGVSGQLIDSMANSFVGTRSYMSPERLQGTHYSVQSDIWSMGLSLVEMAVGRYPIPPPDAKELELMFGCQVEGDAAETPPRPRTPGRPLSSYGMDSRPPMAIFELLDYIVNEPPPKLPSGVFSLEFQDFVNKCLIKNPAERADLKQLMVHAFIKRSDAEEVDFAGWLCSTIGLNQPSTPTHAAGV
SRC, sequence (P12931 whole entry): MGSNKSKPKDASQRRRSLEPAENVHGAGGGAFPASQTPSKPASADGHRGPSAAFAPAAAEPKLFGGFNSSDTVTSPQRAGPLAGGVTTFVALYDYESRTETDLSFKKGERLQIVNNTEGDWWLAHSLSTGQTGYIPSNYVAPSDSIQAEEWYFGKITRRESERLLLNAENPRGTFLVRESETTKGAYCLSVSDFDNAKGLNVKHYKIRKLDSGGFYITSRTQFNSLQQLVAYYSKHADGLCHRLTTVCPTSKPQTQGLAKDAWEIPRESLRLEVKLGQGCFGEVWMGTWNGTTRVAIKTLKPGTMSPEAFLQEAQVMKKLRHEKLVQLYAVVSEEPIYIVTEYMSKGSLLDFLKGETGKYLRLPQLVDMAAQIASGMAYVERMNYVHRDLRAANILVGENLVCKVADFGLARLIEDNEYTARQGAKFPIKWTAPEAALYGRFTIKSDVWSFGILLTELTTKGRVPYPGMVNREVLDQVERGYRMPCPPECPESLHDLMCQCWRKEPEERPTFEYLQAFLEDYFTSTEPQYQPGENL
CRAF, sequence (P04049 306-648 Y340D/Y341D limits assumed): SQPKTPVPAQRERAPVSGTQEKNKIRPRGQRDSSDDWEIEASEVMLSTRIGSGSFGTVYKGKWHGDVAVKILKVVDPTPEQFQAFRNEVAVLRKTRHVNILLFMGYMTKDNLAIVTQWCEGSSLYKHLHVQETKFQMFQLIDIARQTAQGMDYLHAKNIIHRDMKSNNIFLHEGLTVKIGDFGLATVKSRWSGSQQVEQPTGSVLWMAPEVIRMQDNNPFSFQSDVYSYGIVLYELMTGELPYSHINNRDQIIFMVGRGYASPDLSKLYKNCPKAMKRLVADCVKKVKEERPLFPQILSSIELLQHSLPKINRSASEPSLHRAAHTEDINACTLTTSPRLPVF
COT, sequence (P41279 whole entry): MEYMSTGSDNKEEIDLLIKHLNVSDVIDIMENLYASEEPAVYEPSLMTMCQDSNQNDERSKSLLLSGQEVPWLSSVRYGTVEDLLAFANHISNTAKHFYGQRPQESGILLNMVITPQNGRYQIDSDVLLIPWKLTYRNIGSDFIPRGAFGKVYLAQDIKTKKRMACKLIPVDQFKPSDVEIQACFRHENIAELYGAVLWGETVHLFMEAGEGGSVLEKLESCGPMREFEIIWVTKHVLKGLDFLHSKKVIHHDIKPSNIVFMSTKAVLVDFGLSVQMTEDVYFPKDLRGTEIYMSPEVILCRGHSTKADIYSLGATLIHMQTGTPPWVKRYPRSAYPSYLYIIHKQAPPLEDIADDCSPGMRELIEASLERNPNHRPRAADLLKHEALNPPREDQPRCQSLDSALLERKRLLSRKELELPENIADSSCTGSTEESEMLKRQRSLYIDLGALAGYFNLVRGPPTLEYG
BRAF, sequence (P15056 whole entry): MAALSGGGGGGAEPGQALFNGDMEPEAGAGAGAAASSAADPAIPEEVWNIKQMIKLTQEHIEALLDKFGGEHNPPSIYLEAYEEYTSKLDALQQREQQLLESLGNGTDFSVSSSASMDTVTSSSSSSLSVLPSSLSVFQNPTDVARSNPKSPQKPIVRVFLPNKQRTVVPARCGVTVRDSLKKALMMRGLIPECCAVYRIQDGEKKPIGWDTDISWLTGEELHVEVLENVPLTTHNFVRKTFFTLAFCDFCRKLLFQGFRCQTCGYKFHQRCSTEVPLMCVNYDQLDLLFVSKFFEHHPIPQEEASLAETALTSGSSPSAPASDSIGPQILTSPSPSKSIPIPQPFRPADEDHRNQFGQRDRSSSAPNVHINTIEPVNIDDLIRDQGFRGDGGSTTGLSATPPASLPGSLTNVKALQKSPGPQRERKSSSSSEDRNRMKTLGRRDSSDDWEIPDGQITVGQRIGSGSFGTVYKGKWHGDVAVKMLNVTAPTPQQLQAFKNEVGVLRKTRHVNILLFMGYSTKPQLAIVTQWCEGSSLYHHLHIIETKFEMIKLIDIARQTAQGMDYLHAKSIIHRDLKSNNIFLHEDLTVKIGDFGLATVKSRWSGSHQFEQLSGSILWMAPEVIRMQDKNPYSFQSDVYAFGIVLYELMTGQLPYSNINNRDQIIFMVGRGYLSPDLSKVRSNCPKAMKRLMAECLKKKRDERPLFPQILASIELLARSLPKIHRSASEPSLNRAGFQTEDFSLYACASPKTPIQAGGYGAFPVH

Structure (SMILES): C[S+]([O-])c1ccc(-c2nc(-c3ccncc3)c(-c3ccc(F)cc3)[nH]2)cc1 (stereo not drawn) [SB203580]
- cooperation with the pan-RAF inhibitors RAF265 or MLN2480 ([1]; 10 µM SB203580 in combination, Figure S3E): does not cooperate

Structure (SMILES): CSc1cc(Oc2ccnc3[nH]c(=O)cnc23)ccc1NC(=O)Nc1cc(C(C)(C)C)nn1-c1ccccc1 [CCT241161]
- activity against BRAF and NRAS wild-type cancer cells [2]: not active
- sensitivity of SK-Mel 23 cells [3]: sensitive
- body weight [4]: without causing any body weight loss
- xenograft growth [4]: complete inhibition
- inhibition of ERK and SRC in PDX [5]: inhibit ERK and SRC
- inhibition of SFKs [6]: also inhibit SFKs
- inhibition of MEK, ERK, and SRC [6]: inhibit MEK, ERK, and SRC
- activity against BRAF mutant cell lines [7]: active
- cell line sensitivity ([1]; CellTiter Glo): sensitive
- pIC50 ([8]; inhibits SRC at): 7.82
- kinases inhibited in a panel of protein kinases [9]: only inhibit SRC, LCK, and the p38 mitogen-activated protein kinases (MAPKs)
- pIC50 [10]: < 5.00
- fold less sensitive, Ba/F3 cells transformed with BRAF^T529N,V600E vs BRAF^V600E [11]: 19 fold
- ERK activity in SK-Mel 23 cells [12]: sensitive
- PDX sensitivity [13]: remains sensitive
- pIC50 [14]: 8.52
- body weight [15]: without causing any body weight loss
- xenograft growth [15]: inhibit the growth
- activity against RAS mutant cells [16]: also active
- inhibition of MEK and ERK [17]: inhibit MEK and ERK
- weight loss ([18]; oral gavage): do not cause significant weight loss
- NRAS mutant cell growth inhibition, compared with PLX4720 [19]: more efficiently than does PLX4720
- pIC50 [20]: < 5.00
- effect on MEK in NRAS mutant cells [21]: inhibit rather than activate MEK
- body weight [22]: no body weight loss was observed
- body weight [23]: without causing body weight loss
- PDX growth [23]: tumor regression
- sensitivity of PLX4720-resistant A375 cells [24]: still sensitive
- body weight [25]: did not observe any loss in body weight
- PDX sensitivity compared with PLX4720 [25]: more sensitive
- cell sensitivity [26]: sensitive
- caspase 3 and PARP cleavage (apoptosis) [27]: induce caspase 3 and PARP cleavage
- bioavailability [28]: ~55%
- area under the curve [28]: ~275,000 nM.hr
- plasma concentration ([28]; at 14 hr): ~1000 nM
- growth inhibition of BRAF mutant melanoma cells, compared with PLX4720 [29]: more potently than PLX4720
- xenograft growth [30, 38]: tumor regression
- xenograft growth [31]: inhibit the growth
- cell sensitivity compared with PLX4720 [32]: more sensitive
- pIC50 [33]: 8.22
- colony formation under continual exposure [34]: no cells are able to grow
- body weight [35]: do not cause body weight loss
- PDX sensitivity [35]: sensitive
- pIC50 [36]: 6.60
- fold less active against BRAF^T529N,V600E than BRAF^V600E [37]: 42 fold

Structure (SMILES): CC(C)(C)c1cc(NC(=O)Nc2ccc(Oc3ccnc4[nH]c(=O)cnc34)cc2F)n(-c2ccccc2)n1 [CCT196969]
- activity against BRAF and NRAS wild-type cancer cells [2]: not active
- sensitivity of SK-Mel 23 cells [3]: sensitive
- body weight [4]: without causing any body weight loss
- xenograft growth [4]: complete inhibition
- inhibition of ERK and SRC in PDX [5]: inhibit ERK and SRC
- inhibition of SFKs [6]: also inhibit SFKs
- inhibition of MEK, ERK, and SRC [6]: inhibit MEK, ERK, and SRC
- activity against BRAF mutant cell lines [7]: active
- cell line sensitivity ([1]; CellTiter Glo): sensitive
- growth inhibition compared with PLX4720, ARQ736, RAF265, MLN2480 ([1]; CellTiter Glo, Figure S3C): more potently than any of the other inhibitors
- pIC50 ([8]; IC50 SRC, Table 1): 7.52
- kinases inhibited in a panel of protein kinases [9]: only inhibit SRC, LCK, and the p38 mitogen-activated protein kinases (MAPKs)
- pIC50 [10]: < 5.00
- ERK activity in SK-Mel 23 cells [12]: sensitive
- PDX sensitivity [13]: remains sensitive
- pIC50 [14]: 7.85
- body weight [15]: without causing any body weight loss
- xenograft growth [15]: inhibit the growth
- activity against RAS mutant cells [16]: also active
- inhibition of MEK and ERK [17]: inhibit MEK and ERK
- clinical signs and body weight ([18]; 20 mg/kg daily × 24 days, CD-1 mice): no clinical signs or body weight loss
- body weight and food intake [18, 39]: did not show any body weight loss or reduction in food intake
- clinical signs [18, 39]: tachypnoea with decreased activity and excitation
- mortality [18, 39]: did not observe any mortality
- microscopical examination of tissues ([18]; 25 mg/kg daily for 19 days, end of the study): did not identify any treatment-related changes
- weight loss ([18]; oral gavage): do not cause significant weight loss
- clinical signs / adverse effects ([18]; single dose 20 mg/kg, oral gavage, CD-1 mice): no observed adverse effects
- body weight ([18]; single dose 40 mg/kg, oral gavage, CD-1 mice): no effect on body weight
- clinical signs ([18]; single dose 40 mg/kg, oral gavage, CD-1 mice, 1 hr after dosing): slight, transient tachypnoea
- NRAS mutant cell growth inhibition, compared with PLX4720 [19]: more efficiently than does PLX4720
- pIC50 [20]: < 5.00
- effect on MEK in NRAS mutant cells [21]: inhibit rather than activate MEK
- body weight [22]: no body weight loss was observed
- body weight [23]: without causing body weight loss
- PDX growth [23]: tumor regression
- body weight [25]: did not observe any loss in body weight
- PDX sensitivity compared with PLX4720 [25]: more sensitive
- cell sensitivity [26]: sensitive
- caspase 3 and PARP cleavage (apoptosis) [27]: induce caspase 3 and PARP cleavage
- bioavailability [28]: ~55%
- area under the curve [28]: ~416,000 nM.hr
- plasma concentration ([28]; at 24 hr): ~1000 nM
- growth inhibition of BRAF mutant melanoma cells, compared with PLX4720 [29]: more potently than PLX4720
- xenograft growth ([30]; 10 mg/kg/day, data not shown): also effective
- xenograft growth [30, 38]: tumor regression
- xenograft growth [31]: inhibit the growth
- cell sensitivity compared with PLX4720 [32]: more sensitive
- pIC50 [33]: 8.00
- colony formation under continual exposure [34]: no cells are able to grow
- body weight [35]: do not cause body weight loss
- PDX sensitivity [35]: sensitive

Structure (SMILES): CCCS(=O)(=O)Nc1ccc(F)c(C(=O)c2c[nH]c3ncc(Cl)cc23)c1F [PLX4720, reference compound]
- xenograft growth [4]: resistant
- inhibition of ERK and SRC in PDX [5]: does not inhibit ERK or SRC
- inhibition of MEK, ERK, and SRC [6]: does not
- cell line sensitivity ([1]; CellTiter Glo): resistant
- PDX sensitivity [13]: resistance
- PDX growth [23]: neither does it inhibit the growth
- cell sensitivity [26]: not inhibited
- caspase 3 and PARP cleavage (apoptosis) [27]: does not
- PDX sensitivity [35]: resistant

Structure (SMILES): COc1cc2ncnc(Nc3ccc(Oc4ccccc4)cc3)c2cc1OC [SRC inhibitor 1]
- effect in combination with TAK632 ([1]; 40 µM SRC Inhibitor 1 with TAK632, Figure S3D): increases the activity of the pan-RAF inhibitor TAK632
- activity alone ([1]; CellTiter Glo, Figure S3D): inactive alone
